From PMC6814258 (Pharmaceutical research, 2019)
Counter-ions that a name gives are not always drawn.

Each molecule was assayed against Nav1.8 (Homo sapiens, UniProt Q9Y5Y9) (assay: Nav1.8 FLIPR HTS). Settings: HEK293, read-out: Average percent inhibition at 10 μM (Nav1.8).
Type: cell-based

Sequence of Nav1.8 (Q9Y5Y9 whole entry): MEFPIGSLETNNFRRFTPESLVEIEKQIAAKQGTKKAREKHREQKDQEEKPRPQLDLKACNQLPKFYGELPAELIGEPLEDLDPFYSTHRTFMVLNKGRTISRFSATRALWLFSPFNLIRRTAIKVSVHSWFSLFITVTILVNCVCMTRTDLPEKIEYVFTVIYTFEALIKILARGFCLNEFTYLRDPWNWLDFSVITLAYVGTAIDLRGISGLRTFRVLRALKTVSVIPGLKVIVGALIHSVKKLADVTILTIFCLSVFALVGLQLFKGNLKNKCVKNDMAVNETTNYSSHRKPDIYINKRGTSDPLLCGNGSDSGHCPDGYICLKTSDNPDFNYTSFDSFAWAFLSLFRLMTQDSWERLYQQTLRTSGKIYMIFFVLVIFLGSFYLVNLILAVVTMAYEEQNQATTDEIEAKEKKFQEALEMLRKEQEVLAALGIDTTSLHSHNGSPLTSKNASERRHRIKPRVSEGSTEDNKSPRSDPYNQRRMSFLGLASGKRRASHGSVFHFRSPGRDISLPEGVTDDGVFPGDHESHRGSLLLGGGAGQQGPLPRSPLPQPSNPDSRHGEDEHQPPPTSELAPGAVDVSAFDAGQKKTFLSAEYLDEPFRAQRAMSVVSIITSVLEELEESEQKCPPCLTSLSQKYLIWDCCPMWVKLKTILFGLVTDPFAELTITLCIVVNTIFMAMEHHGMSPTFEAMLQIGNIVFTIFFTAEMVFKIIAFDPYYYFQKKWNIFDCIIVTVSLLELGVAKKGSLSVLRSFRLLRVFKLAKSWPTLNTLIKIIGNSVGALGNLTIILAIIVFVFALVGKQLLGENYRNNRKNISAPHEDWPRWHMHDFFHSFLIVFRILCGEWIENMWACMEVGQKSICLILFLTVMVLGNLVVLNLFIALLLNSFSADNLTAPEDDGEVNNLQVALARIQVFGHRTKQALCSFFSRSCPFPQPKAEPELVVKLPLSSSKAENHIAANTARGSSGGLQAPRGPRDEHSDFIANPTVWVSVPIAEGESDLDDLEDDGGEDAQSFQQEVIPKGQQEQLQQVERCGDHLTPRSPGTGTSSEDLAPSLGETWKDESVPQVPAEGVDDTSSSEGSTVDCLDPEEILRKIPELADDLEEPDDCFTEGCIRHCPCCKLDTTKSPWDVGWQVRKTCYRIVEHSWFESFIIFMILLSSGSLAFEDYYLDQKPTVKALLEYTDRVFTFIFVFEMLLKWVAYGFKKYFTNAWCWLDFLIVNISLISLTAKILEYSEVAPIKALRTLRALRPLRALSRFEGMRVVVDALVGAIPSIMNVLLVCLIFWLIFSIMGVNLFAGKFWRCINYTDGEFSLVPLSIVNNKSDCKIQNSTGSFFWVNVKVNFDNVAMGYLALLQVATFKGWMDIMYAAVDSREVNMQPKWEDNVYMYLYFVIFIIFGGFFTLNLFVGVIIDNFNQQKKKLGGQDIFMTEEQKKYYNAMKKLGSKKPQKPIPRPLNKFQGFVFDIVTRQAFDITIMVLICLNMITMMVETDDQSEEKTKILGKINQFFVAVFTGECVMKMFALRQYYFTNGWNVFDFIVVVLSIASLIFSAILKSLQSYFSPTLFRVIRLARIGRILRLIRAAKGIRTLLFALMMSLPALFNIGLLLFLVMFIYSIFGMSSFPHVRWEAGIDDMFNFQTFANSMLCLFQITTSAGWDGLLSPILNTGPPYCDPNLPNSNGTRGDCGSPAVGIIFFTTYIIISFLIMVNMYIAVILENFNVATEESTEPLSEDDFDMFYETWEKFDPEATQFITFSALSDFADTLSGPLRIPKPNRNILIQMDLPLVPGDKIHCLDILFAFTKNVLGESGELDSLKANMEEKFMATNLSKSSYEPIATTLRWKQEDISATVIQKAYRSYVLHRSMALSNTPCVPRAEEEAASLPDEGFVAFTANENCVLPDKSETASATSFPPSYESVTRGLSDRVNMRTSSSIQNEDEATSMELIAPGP

Row | SMILES | inhibition at 10 µM [%]
1 | CCN(CC)CCOC(=O)C(c1ccccc1)c1ccccc1 [Adiphenine hydrochloride] | 90.4
2 | COc1ccc(-c2cc(=S)ss2)cc1 [Anethole-trithione] | 78.5
3 | CCCCOc1cc(C(=O)OCCN(CC)CC)ccc1N [Benoxinate hydrochloride] | 83.7
4 | O=C(CCCN1CCC(n2c(O)nc3ccccc32)CC1)c1ccc(F)cc1 [Benperidol] | 84.2
5 | CCCCNc1ccc(C(=O)OCCOCCOCCOCCOCCOCCOCCOCCOCCOC)cc1 [Benzonatate] | 79.9
6 | CN(C)CCCOc1nn(Cc2ccccc2)c2ccccc12 [Benzydamine hydrochloride] | 83.6
7 | CC(C)COCC(CN(Cc1ccccc1)c1ccccc1)N1CCCC1 (stereo not shown) [Bepridil hydrochloride] | 89.1
8 | CCCCCCNC(=O)n1cc(F)c(=O)[nH]c1=O [Carmofur] | 124
9 | COc1ccccc1OCCNCC(O)COc1cccc2[nH]c3ccccc3c12 (stereo not shown) [Carvedilol] | 104
10 | CN(C)CC/C=C1/c2ccccc2Sc2ccc(Cl)cc21 [Chlorprothixene hydrochloride] | 77.4
11 | CCCCOc1cc(C(=O)NCCN(CC)CC)c2ccccc2n1 [Dibucaine] | 79.4
12 | CCCCc1cc2ccccc2c(OCCN(C)C)n1 [Dimethisoquin hydrochloride] | 75.5
13 | COc1ccc(C(=O)c2ccccc2O)c(O)c1 [Dioxybenzone] | 100
14 | O=C(Nc1ccccc1)OCC(CN1CCCCC1)OC(=O)Nc1ccccc1 (stereo not shown) [Diperodon hydrochloride] | 92.2
15 | COc1cc2nc(N3CCN(C(=O)C4COc5ccccc5O4)CC3)nc(N)c2cc1OC (stereo not shown) [Doxazosin mesylate] | 76.1
16 | CN(C)CCC=C1c2ccccc2COc2ccccc21 [Doxepin hydrochloride] | 88.7
17 | CCN(CC)CCOC(=O)C(c1ccccc1)C1CCCCC1 (stereo not shown) [Drofenine hydrochloride] | 76.8
18 | O=C(CCCN1CC=C(n2c(=O)[nH]c3ccccc32)CC1)c1ccc(F)cc1 [Droperidol] | 87.6
19 | CCCCOc1ccc(C(=O)CCN2CCCCC2)cc1 [Dyclonine hydrochloride] | 99
20 | C[C@]12CC[C@@H]3c4ccc(O)cc4CC[C@H]3[C@@H]1CCC2=O [Estrone] | 78.2

Row | SMILES | inhibition at 10 µM [%]
21 | CCN(CC)C(C)CN1c2ccccc2Sc2ccccc21 (stereo not shown) [Ethopropazine hydrochloride] | 85.5
22 | NC(=O)OCC(COC(N)=O)c1ccccc1 [Felbamate] | 78.6
23 | CC(NCCC(c1ccccc1)c1ccccc1)c1ccccc1 (stereo not shown) [Fendiline hydrochloride] | 91.3
24 | CC(Cc1ccc(O)cc1)NCC(O)c1cc(O)cc(O)c1 (stereo not shown) [Fenoterol hydrobromide] | 78.3
25 | CS(=O)(=O)c1ccc([C@@H](O)[C@@H](CF)NC(=O)C(Cl)Cl)cc1 [Florfenicol] | 77.5
26 | Fc1ccc(C(c2ccc(F)cc2)N2CCN(C/C=C/c3ccccc3)CC2)cc1 [Flunarizine dihydrochloride] | 96.6
27 | CC(C)(C)NC[C@H](O)c1ccc(O)c(CO)c1 [Levalbuterol hydrochloride] | 85.3
28 | C[C@H](N)[C@H](O)c1ccc(O)c(O)c1 [Levonordefrin] | 107
29 | CCC(=O)O[C@@](Cc1ccccc1)(c1ccccc1)[C@@H](C)CN(C)C [Levopropoxyphene napsylate] | 95.1
30 | Cc1cccc(C)c1NC(=O)CN1CCN(CCCC(c2ccc(F)cc2)c2ccc(F)cc2)CC1 [Lidoflazine] | 92.7
31 | Cc1cccc(C)c1OCC(=O)N[C@@H](Cc1ccccc1)[C@@H](O)C[C@H](Cc1ccccc1)NC(=O)[C@H](C(C)C)N1CCCNC1=O [Lopinavir] | 76.8
32 | O=c1cc(-c2ccc(O)c(O)c2)oc2cc(O)cc(O)c12 [Luteolin] | 86.2
33 | CCOC(=O)Nc1ccc2c(c1)N(C(=O)CCN1CCOCC1)c1ccccc1S2 [Moricizine hydrochloride] | 75.8
34 | CN(C/C=C/c1ccccc1)Cc1cccc2ccccc12 [Naftifine hydrochloride] | 96.1
35 | OC(CNCC(O)C1CCc2cc(F)ccc2O1)C1CCc2cc(F)ccc2O1 (stereo not shown) [Nebivolol hydrochloride] | 82.7
36 | CCc1nn(CCCN2CCN(c3cccc(Cl)c3)CC2)c(=O)n1CCOc1ccccc1 [Nefazodone hydrochloride] | 88.5
37 | CO[C@]12C[C@@H](COC(=O)c3cncc(Br)c3)CN(C)[C@@H]1Cc1cn(C)c3cccc2c13 [Nicergoline] | 82.3
38 | CNCCC=C1c2ccccc2CCc2ccccc21 [Nortriptyline hydrochloride] | 85.9
39 | CN(C(=O)CN(CCO)CC(=O)N(C)C(C)(C)Cc1ccccc1)C(C)(C)Cc1ccccc1 [Oxethazaine] | 92.9
40 | CCN(CC)CC#CCOC(=O)C(O)(c1ccccc1)C1CCCCC1 (stereo not shown) [Oxybutynin chloride] | 77.3

Row | SMILES | inhibition at 10 µM [%]
41 | C1CCC(C(CC2CCCCN2)C2CCCCC2)CC1 (stereo not shown) [Perhexiline maleate] | 79.2
42 | O=C1[C@H]2CCCC[C@H]2C(=O)N1CCCCN1CCN(c2nsc3ccccc23)CC1 [Perospirone] | 89.7
43 | CC(COc1ccccc1)N(CCCl)Cc1ccccc1 (stereo not shown) [Phenoxybenzamine hydrochloride] | 86.1
44 | CN1CCC(=C2c3ccccc3Sc3ccccc32)CC1 [Pimethixene maleate] | 88.5
45 | O=c1[nH]c2ccccc2n1C1CCN(CCCC(c2ccc(F)cc2)c2ccc(F)cc2)CC1 [Pimozide] | 101
46 | CN(C)CCCN1c2ccccc2Sc2ccccc21 [Promazine hydrochloride] | 88.1
47 | CC(CN1c2ccccc2Sc2ccccc21)N(C)C (stereo not shown) [Promethazine hydrochloride] | 78.5
48 | CCCOc1ccc(C(=O)OCCN(CC)CC)cc1N [Proparacaine hydrochloride] | 103
49 | CNCCCC1c2ccccc2C=Cc2ccccc21 [Protriptyline hydrochloride] | 80
50 | CC(C)(C)NCC(O)c1ccc(O)c(CO)c1 (stereo not shown) [Salbutamol] | 78
51 | OCc1cc(C(O)CNCCCCCCOCCCCc2ccccc2)ccc1O (stereo not shown) [Salmeterol] | 99.6
52 | CC(C)(C)NC(=O)[C@@H]1C[C@@H]2CCCC[C@@H]2CN1C[C@@H](O)[C@H](Cc1ccccc1)NC(=O)[C@H](CC(N)=O)NC(=O)c1ccc2ccccc2n1 [Saquinavir mesylate] | 92.8
53 | O=C(CCCN1CCC2(CC1)C(=O)NCN2c1ccccc1)c1ccc(F)cc1 [Spiperone] | 82
54 | CCCCCCCCNC(C)C(O)c1ccc(SC(C)C)cc1 (stereo not shown) [Suloctidil] | 93.8
55 | [H]/N=C(/NCCCCC)N/N=C/c1c[nH]c2ccc(OC)cc12 [Tegaserod maleate] | 98.3
56 | CN1CCN(CCCN2c3ccccc3Sc3ccc(C(F)(F)F)cc32)CC1 [Trifluoperazine dihydrochloride] | 79.1
57 | CCC(COC(=O)c1cc(OC)c(OC)c(OC)c1)(c1ccccc1)N(C)C (stereo not shown) [Trimebutine] | 88.7
58 | CCOC(=O)C1=C[C@]2(CC)CCCN3CCc4c(n1c1ccccc41)[C@@H]32 [Vinpocetine] | 93.4

Each molecule was assayed against human KV7.1 (Homo sapiens, UniProt P51787) (assay: KV7.1 86Rb+ efflux HTS). Settings: 10 μM, n=2, CHO cells, 86Rb+ efflux, normalized to 10 μM chromanol 293B control.
Sequence of human KV7.1 (P51787 whole entry): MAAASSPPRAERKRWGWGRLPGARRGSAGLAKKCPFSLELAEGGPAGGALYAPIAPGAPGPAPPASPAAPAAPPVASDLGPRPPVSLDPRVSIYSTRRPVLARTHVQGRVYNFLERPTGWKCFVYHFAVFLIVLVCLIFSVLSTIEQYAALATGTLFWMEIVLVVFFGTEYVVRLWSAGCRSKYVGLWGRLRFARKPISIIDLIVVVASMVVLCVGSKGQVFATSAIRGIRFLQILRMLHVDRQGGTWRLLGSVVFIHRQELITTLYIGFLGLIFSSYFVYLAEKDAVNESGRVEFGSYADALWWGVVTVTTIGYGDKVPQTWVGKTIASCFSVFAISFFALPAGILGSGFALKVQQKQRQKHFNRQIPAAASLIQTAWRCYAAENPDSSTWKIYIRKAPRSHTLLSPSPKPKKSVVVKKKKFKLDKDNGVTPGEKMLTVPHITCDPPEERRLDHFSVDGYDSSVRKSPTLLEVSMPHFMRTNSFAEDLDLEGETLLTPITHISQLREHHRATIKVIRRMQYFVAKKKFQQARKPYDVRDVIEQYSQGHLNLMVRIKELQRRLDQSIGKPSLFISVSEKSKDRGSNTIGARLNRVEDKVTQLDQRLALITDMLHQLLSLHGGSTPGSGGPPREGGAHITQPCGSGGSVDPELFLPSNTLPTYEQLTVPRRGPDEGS
Type: cell-based

Row | SMILES | Average percent inhibition at 10 μM (KCNQ1) [%]
59 | CN1CCN(C(c2ccccc2)c2ccccc2)CC1.Cl [Cyclizine hydrochloride] | 45.9
60 | CC(=O)O[C@H]1CC[C@@]2(C)C(=CC[C@@H]3[C@@H]2CC[C@]2(C)C(=O)CC[C@@H]32)C1 [Dehydroisoandosterone 3-acetate] | 52.9
61 | C[C@]12CC[C@@H]3c4ccc(O)cc4CC[C@H]3[C@@H]1CC[C@@H]2O [Estradiol-17 beta] | 56.3
62 | CN1CCCN(C(c2ccccc2)c2ccc(Cl)cc2)CC1.Cl.Cl (stereo not shown) [Homochlorcyclizine dihydrochloride] | 43.5

Same assay, conditions: CHO, read-out: Average percent inhibition at 10 μM (KCNQ1)

Row | SMILES | inhibition at 10 µM [%]
63 | CCOC(=O)[C@H](CCc1ccccc1)N[C@H]1CCc2ccccc2N(CC(=O)O)C1=O [Benazepril hydrochloride] | 44.8
64 | CCc1oc2ccccc2c1C(=O)c1cc(Br)c(O)c(Br)c1 [Benzbromarone] | 58.1
65 | Clc1ccc(CCC(Cn2ccnc2)Sc2c(Cl)cccc2Cl)cc1 (stereo not shown) [Butoconazole nitrate] | 67
66 | Clc1ccccc1C(c1ccccc1)(c1ccccc1)n1ccnc1 [Clotrimazole] | 46.3
67 | NS(=O)(=O)c1cc2c(cc1Cl)NC(CC1CCCC1)NS2(=O)=O (stereo not shown) [Cyclopenthiazide] | 68.3
68 | C/C=C(/C(=C/C)c1ccc(O)cc1)c1ccc(O)cc1 [Dienestrol] | 61.3
69 | Clc1ccc(COC(Cn2ccnc2)c2ccc(Cl)cc2Cl)cc1 (stereo not shown) [Econazole nitrate] | 85.6
70 | O=C1Nc2ccc(Cl)cc2[C@@](C#CC2CC2)(C(F)(F)F)O1 [Efavirenz] | 80.3
71 | C[C@]12CC[C@H]3C(=CCc4cc(O)ccc43)[C@@H]1CCC2=O [Equilin] | 64.6
72 | CCOc1ccc(Cc2nccc3cc(OCC)c(OCC)cc23)cc1OCC [Ethaverine hydrochloride] | 86.9
73 | C#C[C@]1(O)CC[C@H]2[C@@H]3CCc4cc(O)ccc4[C@H]3CC[C@@]21C [Ethinylestradiol] | 75.8
74 | C#C[C@]1(OC(C)=O)CC[C@H]2[C@@H]3CCC4=C[C@@H](OC(C)=O)CC[C@@H]4[C@H]3CC[C@@]21C [Ethynodiol diacetate] | 88
75 | O=C(OCCOCCO)c1ccccc1Nc1cccc(C(F)(F)F)c1 [Etofenamate] | 51.8
76 | CC(C)c1c(CN(C)C(C)Cc2ccccc2)n(C)n(-c2ccccc2)c1=O (stereo not shown) [Famprofazone] | 50.7
77 | CC(C)OC(=O)C(C)(C)Oc1ccc(C(=O)c2ccc(Cl)cc2)cc1 [Fenofibrate] | 64
78 | COC1=C(OC)C(=O)C(CCCCCCCCCCO)=C(C)C1=O [Idebenone] | 59
79 | Clc1ccc(C(Cn2ccnc2)OCc2c(Cl)cccc2Cl)c(Cl)c1 (stereo not shown) [Isoconazole] | 61.2
